Results on 26 molecules are retold here after US12247015B2, “3-amino-4H-benzo[e][1,2,4]thiadiazine 1,1-dioxide derivatives as inhibitors of MRGX2” (Solent Therapeutics, LLC, priority 2019, dated 2025).

Each structure is given as a SMILES string.

This assay addresses hMRGX2 (CHO-K1 cells overexpressing MRGX2) (Homo sapiens (Human), UniProt Q96LB1). In words: In vitro inhibition (EC50) of intracellular calcium flux, FLIPR Tetra, substance P stimulation. In kind it is cell-based. Conditions: stimulated with MRGX2 ligand substance P, FLIPR Calcium 5, read-out: hMRGX2 Cellular Potency (pEC50) (converted). The method, then: In Vitro Inhibition (EC50) of Intracellular Calcium Flux
The release of intracellular calcium following stimulation of cells with substance P in the presence or absence of inhibitor compounds was measured using the FLIPR Tetra® system. CHO-K1 cells overexpressing MRGX2 were seeded into 384-well plates (Black clear bottom, TC-treated, Fisher #07-200-655) and incubated overnight to allow for cell attachment. Media was removed, and 1× loading buffer (FLIPR® Calcium 5 assay solution, Molecular Devices, per manufacturer specifications) was added. The plates were incubated at 37° C. for 30 minutes. Test compounds were added to cells (11-point dose response, 10 µM maximum concentration) and fluorescence measured (120 seconds, in real time) using the FLIPR Tetra® system. Immediately following, MRGX2 ligand substance P was added at a final concentration of 1 µM and fluorescence measured (120 seconds, in real time) using the FLIPR Tetra® system. The data for the examples are reported as pEC50.
A general note: Calcium flux is commonly read through the fluorescence of an indicator in the cells.

Sequence of hMRGX2 (CHO-K1 cells overexpressing MRGX2) (Q96LB1 whole entry): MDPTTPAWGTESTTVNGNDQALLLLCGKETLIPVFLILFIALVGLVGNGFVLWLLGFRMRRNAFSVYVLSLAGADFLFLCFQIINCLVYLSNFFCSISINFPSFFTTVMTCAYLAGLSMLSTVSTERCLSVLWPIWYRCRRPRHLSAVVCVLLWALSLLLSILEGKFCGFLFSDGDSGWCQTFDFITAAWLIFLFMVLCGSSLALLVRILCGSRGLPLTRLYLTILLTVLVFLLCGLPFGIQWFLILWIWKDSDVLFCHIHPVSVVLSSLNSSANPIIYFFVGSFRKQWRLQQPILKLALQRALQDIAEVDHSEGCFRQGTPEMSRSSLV

Take `O=S1(=O)N=C(NCc2ccsn2)Nc2c(-c3cccc(F)c3Cl)cccc21` [Example 64, 5-(2-chloro-3-fluorophenyl)-3-((isothiazol-3-ylmethyl)amino)-4H-benzo[e][1,2,4]thiadiazine 1,1-dioxide]: the EC50 is 0.0156 µM.

Take `CO[C@H](C)CCNC1=NS(=O)(=O)c2cccc(-c3cccc(F)c3Cl)c2N1` (single isomer, unassigned) [Example 154]: the EC50 was 0.0322 µM.

With `COc1cccc(CCNC2=NS(=O)(=O)c3cccc(-c4cccc(F)c4Cl)c3N2)c1` [Example 70, 5-(2-chloro-3-fluorophenyl)-3-((3-methoxyphenethyl)amino)-4H-benzo[e][1,2,4]thiadiazine 1,1-dioxide], the EC50 is 0.0579 µM.

Consider `COCCNC1=NS(=O)(=O)c2cccc(-c3cc(F)ccc3Cl)c2N1` [Example 144, 5-(2-chloro-5-fluorophenyl)-3-((2-methoxyethyl)amino)-4H-benzo[e][1,2,4]thiadiazine 1,1-dioxide], for which the EC50 is 0.216 µM.

`O=S1(=O)N=C(NCC(F)F)Nc2c(-c3ccnc(F)c3Cl)cccc21` [Example 53, 5-(3-chloro-2-fluoropyridin-4-yl)-3-((2,2-difluoroethyl)amino)-4H-benzo[e][1,2,4]thiadiazine 1,1-dioxide]: the EC50 is 0.575 µM.

Take `CO[C@@H](C)CCNC1=NS(=O)(=O)c2cccc(-c3cccc(F)c3Cl)c2N1` [Example 155, (S)-5-(2-chloro-3-fluorophenyl)-3-((3-methoxybutyl)amino)-4H-benzo[e][1,2,4]thiadiazine 1,1-dioxide]: the EC50 was 0.0352 µM.

Consider `CC(C)c1ccc(NC2=NS(=O)(=O)c3cccc(-c4cnn(C(F)F)c4)c3N2)cc1` [Example 99, 5-(1-(difluoromethyl)-1H-pyrazol-4-yl)-3-((4-isopropylphenyl)amino)-4H-benzo[e][1,2,4]thiadiazine 1,1-dioxide], for which the EC50 is 0.76 µM.

For the molecule `N#Cc1c(F)cccc1-c1cccc2c1NC(NCc1nccs1)=NS2(=O)=O` [Example 126, 2-(1,1-dioxido-3-((thiazol-2-ylmethyl)amino)-4H-benzo[e][1,2,4]thiadiazin-5-yl)-6-fluorobenzonitrile], the EC50 was 0.07 µM.

Turning to `O=S1(=O)N=C(NCCC2CCCO2)Nc2c(-c3cccc(F)c3Cl)cccc21` (centres unmarked) [Example 73, 5-(2-chloro-3-fluorophenyl)-3-((2-(tetrahydrofuran-2-yl)ethyl)amino)-4H-benzo[e][1,2,4]thiadiazine 1,1-dioxide], the EC50 is 0.139 µM.

For `O=S1(=O)N=C(NCc2ncccc2F)Nc2c(-c3ccnc(F)c3Cl)cccc21` [Example 51, 5-(3-chloro-2-fluoropyridin-4-yl)-3-(((3-fluoropyridin-2-yl)methyl)amino)-4H-benzo[e][1,2,4]thiadiazine 1,1-dioxide], the EC50 is 0.019 µM.

For `CC(C)c1ccc(NC2=NS(=O)(=O)c3cccc(C(C)C)c3N2)cc1` [Example 110, 5-isopropyl-3-((4-isopropylphenyl)amino)-4H-benzo[e][1,2,4]thiadiazine 1,1-dioxide], the EC50 was 0.0352 µM.

On to `COc1cccc(CNC2=NS(=O)(=O)c3cccc(-c4cccc(F)c4F)c3N2)n1` [Example 19, 5-(2,3-difluorophenyl)-3-(((6-methoxypyridin-2-yl)methyl)amino)-4H-benzo[e][1,2,4]thiadiazine 1,1-dioxide], for which the EC50 was 0.0234 µM.

As to `O=S1(=O)N=C(NC2CC2)Nc2c(-c3cccc(F)c3Cl)cccc21` [Example 159, 5-(2-chloro-3-fluorophenyl)-3-(cyclopropylamino)-4H-benzo[e][1,2,4]thiadiazine 1,1-dioxide], the EC50 was 0.0536 µM.

As for `COCCNC1=NS(=O)(=O)c2cccc(-c3ccccc3C3CC3)c2N1` [Example 63, 5-(2-cyclopropylphenyl)-3-((2-methoxyethyl)amino)-4H-benzo[e][1,2,4]thiadiazine 1,1-dioxide], the EC50 was 0.953 µM.

As for `COCCCNC1=NS(=O)(=O)c2cccc(-c3cccc(F)c3Cl)c2N1` [Example 151, 5-(2-chloro-3-fluorophenyl)-3-((3-methoxypropyl)amino)-4H-benzo[e][1,2,4]thiadiazine 1,1-dioxide], the EC50 is 0.562 µM.

With `COC(C)CNC1=NS(=O)(=O)c2cccc(-c3cc(F)cc(F)c3F)c2N1` (centres unmarked) [Example 127, 3-((2-methoxypropyl)amino)-5-(2,3,5-trifluorophenyl)-4H-benzo[e][1,2,4]thiadiazine 1,1-dioxide], the EC50 is 0.0871 µM.

On to `CNC1=NS(=O)(=O)c2cc(C)cc(-c3cccc(F)c3Cl)c2N1` [Example 97, 5-(2-chloro-3-fluorophenyl)-7-methyl-3-(methylamino)-4H-benzo[e][1,2,4]thiadiazine 1,1-dioxide], for which the EC50 is 0.589 µM.

Turning to `CCOC(C)CNC1=NS(=O)(=O)c2cccc(-c3cccc(F)c3Cl)c2N1` (centres unmarked) [Example 58, 5-(2-chloro-3-fluorophenyl)-3-((2-ethoxypropyl)amino)-4H-benzo[e][1,2,4]thiadiazine 1,1-dioxide], the EC50 is 0.179 µM.

On to `O=S1(=O)N=C(NCC2CC2)Nc2c(-c3cc(F)ccc3F)cccc21` [Example 140, 3-((cyclopropylmethyl)amino)-5-(2,5-difluorophenyl)-4H-benzo[e][1,2,4]thiadiazine 1,1-dioxide], for which the EC50 is 0.692 µM.

As for `O=S1(=O)N=C(NCC2CCC2)Nc2c(-c3cccc(F)c3F)cccc21` [Example 22, 3-((cyclobutylmethyl)amino)-5-(2,3-difluorophenyl)-4H-benzo[e][1,2,4]thiadiazine 1,1-dioxide], the EC50 is 0.0805 µM.

For the molecule `CC(C)c1ccc(NC2=NS(=O)(=O)c3cccc(-n4cccn4)c3N2)cc1` [Example 100, 3-((4-isopropylphenyl)amino)-5-(1H-pyrazol-1-yl)-4H-benzo[e][1,2,4]thiadiazine 1,1-dioxide], the EC50 was 0.766 µM.

Turning to `COC(C)CCNC1=NS(=O)(=O)c2cccc(-c3cccc(F)c3Cl)c2N1` (racemic) [Example 153, 5-(2-chloro-3-fluorophenyl)-3-((3-methoxybutyl)amino)-4H-benzo[e][1,2,4]thiadiazine 1,1-dioxide], the EC50 was 0.0273 µM.

Regarding `CNC1=NS(=O)(=O)c2ccc(F)c(-c3ccccc3Cl)c2N1` [Example 138, 5-(2-chlorophenyl)-6-fluoro-3-(methylamino)-4H-benzo[e][1,2,4]thiadiazine 1,1-dioxide], the EC50 is 0.19 µM.

`O=S1(=O)N=C(NCc2ncco2)Nc2c(-c3ccnc(F)c3Cl)cccc21` [Example 48, 5-(3-chloro-2-fluoropyridin-4-yl)-3-((oxazol-2-ylmethyl)amino)-4H-benzo[e][1,2,4]thiadiazine 1,1-dioxide]: the EC50 is 0.036 µM.

For `O=S1(=O)N=C(NCc2cccc(F)n2)Nc2c(-c3cccc(F)c3Cl)cccc21` [Example 148, 5-(2-chloro-3-fluorophenyl)-3-(((6-fluoropyridin-2-yl)methyl)amino)-4H-benzo[e][1,2,4]thiadiazine 1,1-dioxide], the EC50 was 0.017 µM.

For `COC(C)CNC1=NS(=O)(=O)c2cccc(-c3cc(F)cc(F)c3)c2N1` (centres unmarked) [Example 166, 5-(3,5-difluorophenyl)-3-((2-methoxypropyl)amino)-4H-benzo[e][1,2,4]thiadiazine 1,1-dioxide], the EC50 was 0.34 µM.
